From ChEMBL document CHEMBL3436046, “Predictive model for L-type channel inhibition: multichannel block in QT prolongation risk assessment” (J Appl Toxicol, 2012)

What was measured:
[1] = biological target: T1, Voltage-dependent L-type calcium channel subunit alpha-1C (Homo sapiens, UniProt Q13936); assay: (§1) Inhibition of L-type calcium channel measured using 2-electrode voltage-clamp in Xenopus oocyte heterologically expressing alpha-1C subunit; type: functional, cell-based; design: ca sol conc 0 mM, temp room
[2] = biological target: T1, Voltage-dependent L-type calcium channel subunit alpha-1C; assay: as §1; type: functional, cell-based; design: ca sol conc 0 mM, temp room; remark: listed apart in the source
[3] = biological target: T2, Voltage-dependent L-type calcium channel subunit alpha-1C (Rattus norvegicus, UniProt P22002); assay: (§2) Inhibition of L-type calcium channel measured using whole-cell patch clamp in rat ventricular myocytes; type: functional, cell-based, Heart, Ventricular myocyte; design: ca sol conc 1 mM, temp 20-24 C
[4] = biological target: T1, Voltage-dependent L-type calcium channel subunit alpha-1C; assay: (§3) Inhibition of L-type calcium channel measured using […] kidney cells heterologically expressing alpha-1C subunit; type: functional, cell-based, HEK293; design: ca sol conc 0 mM, temp 21-24 C
[5] = biological target: T3, Voltage-dependent L-type calcium channel subunit alpha-1C (Cavia porcellus, UniProt O35505); assay: (§4) Inhibition of L-type calcium channel measured using whole-cell patch clamp in guinea pig ventricular myocytes; type: functional, cell-based, Heart, Ventricular myocyte; design: ca sol conc 1.8 mM, temp room
[6] = biological target: T2, Voltage-dependent L-type calcium channel subunit alpha-1C; assay: as §2; type: functional, cell-based, Heart, Ventricular myocyte; design: ca sol conc 1.8 mM, temp 21-23 C
[7] = biological target: T3, Voltage-dependent L-type calcium channel subunit alpha-1C; assay: as §4; type: functional, cell-based, Heart, Ventricular myocyte; design: ca sol conc 1.8 mM, temp 20-22 C
[8] = biological target: T3, Voltage-dependent L-type calcium channel subunit alpha-1C; assay: as §4; type: functional, cell-based, Heart, Ventricular myocyte; design: ca sol conc 1.8 mM, temp 20-22 C; remark: listed apart in the source
[9] = biological target: T3, Voltage-dependent L-type calcium channel subunit alpha-1C; assay: as §4; type: functional, cell-based, Heart, Ventricular myocyte; design: ca sol conc 1 mM, temp room
[10] = biological target: T3, Voltage-dependent L-type calcium channel subunit alpha-1C; assay: as §4; type: functional, cell-based, Heart, Ventricular myocyte; design: ca sol conc 1 mM, temp room; remark: listed apart in the source
[11] = biological target: T1, Voltage-dependent L-type calcium channel subunit alpha-1C; assay: as §3; type: functional, cell-based, HEK293; design: ca sol conc 0 mM, temp room
[12] = biological target: T3, Voltage-dependent L-type calcium channel subunit alpha-1C; assay: as §4; type: functional, cell-based, Heart, Ventricular myocyte; design: ca sol conc 0 mM, temp 20-25 C
[13] = biological target: T3, Voltage-dependent L-type calcium channel subunit alpha-1C; assay: as §4; type: functional, cell-based, Heart, Ventricular myocyte; design: ca sol conc 1.8 mM, temp 36-37 C
[14] = biological target: T1, Voltage-dependent L-type calcium channel subunit alpha-1C; assay: as §3; type: functional, cell-based, HEK293; design: ca sol conc 0 mM, temp 37 C
[15] = biological target: T3, Voltage-dependent L-type calcium channel subunit alpha-1C; assay: as §4; type: functional, cell-based, Heart, Ventricular myocyte; design: ca sol conc 2 mM, temp room
[16] = biological target: T3, Voltage-dependent L-type calcium channel subunit alpha-1C; assay: as §4; type: functional, cell-based, Heart, Ventricular myocyte; design: ca sol conc 1.8 mM, temp 20-25 C
[17] = biological target: T3, Voltage-dependent L-type calcium channel subunit alpha-1C; assay: as §4; type: functional, cell-based, Heart, Ventricular myocyte; design: ca sol conc 1.8 mM, temp 36 C
[18] = biological target: T3, Voltage-dependent L-type calcium channel subunit alpha-1C; assay: as §4; type: functional, cell-based, Heart, Ventricular myocyte; design: ca sol conc None mM, temp 36 C
[19] = biological target: T1, Voltage-dependent L-type calcium channel subunit alpha-1C; assay: as §3; type: functional, cell-based, HEK293; design: ca sol conc 0 mM, temp 21-24 C; remark: listed apart in the source
[20] = biological target: T3, Voltage-dependent L-type calcium channel subunit alpha-1C; assay: as §4; type: functional, cell-based, Heart, Ventricular myocyte; design: ca sol conc 1.8 mM, temp 20-22 C; remark: listed apart in the source
[21] = biological target: T1, Voltage-dependent L-type calcium channel subunit alpha-1C; assay: as §3; type: functional, cell-based, HEK293; design: ca sol conc 0 mM, temp room; remark: listed apart in the source
[22] = biological target: T2, Voltage-dependent L-type calcium channel subunit alpha-1C; assay: as §2; type: functional, cell-based, Heart, Ventricular myocyte; design: ca sol conc 2 mM, temp 22-23 C
[23] = biological target: T1, Voltage-dependent L-type calcium channel subunit alpha-1C; assay: as §3; type: functional, cell-based, HEK293; design: ca sol conc 0 mM, temp 20-25 C
[24] = biological target: T2, Voltage-dependent L-type calcium channel subunit alpha-1C; assay: as §2; type: functional, cell-based, Heart, Ventricular myocyte; design: ca sol conc 1 mM, temp 21-23 C
[25] = biological target: T2, Voltage-dependent L-type calcium channel subunit alpha-1C; assay: as §2; type: functional, cell-based, Heart, Ventricular myocyte; design: ca sol conc 1 mM, temp 21-23 C; remark: listed apart in the source

T3 sequence (O35505 whole entry): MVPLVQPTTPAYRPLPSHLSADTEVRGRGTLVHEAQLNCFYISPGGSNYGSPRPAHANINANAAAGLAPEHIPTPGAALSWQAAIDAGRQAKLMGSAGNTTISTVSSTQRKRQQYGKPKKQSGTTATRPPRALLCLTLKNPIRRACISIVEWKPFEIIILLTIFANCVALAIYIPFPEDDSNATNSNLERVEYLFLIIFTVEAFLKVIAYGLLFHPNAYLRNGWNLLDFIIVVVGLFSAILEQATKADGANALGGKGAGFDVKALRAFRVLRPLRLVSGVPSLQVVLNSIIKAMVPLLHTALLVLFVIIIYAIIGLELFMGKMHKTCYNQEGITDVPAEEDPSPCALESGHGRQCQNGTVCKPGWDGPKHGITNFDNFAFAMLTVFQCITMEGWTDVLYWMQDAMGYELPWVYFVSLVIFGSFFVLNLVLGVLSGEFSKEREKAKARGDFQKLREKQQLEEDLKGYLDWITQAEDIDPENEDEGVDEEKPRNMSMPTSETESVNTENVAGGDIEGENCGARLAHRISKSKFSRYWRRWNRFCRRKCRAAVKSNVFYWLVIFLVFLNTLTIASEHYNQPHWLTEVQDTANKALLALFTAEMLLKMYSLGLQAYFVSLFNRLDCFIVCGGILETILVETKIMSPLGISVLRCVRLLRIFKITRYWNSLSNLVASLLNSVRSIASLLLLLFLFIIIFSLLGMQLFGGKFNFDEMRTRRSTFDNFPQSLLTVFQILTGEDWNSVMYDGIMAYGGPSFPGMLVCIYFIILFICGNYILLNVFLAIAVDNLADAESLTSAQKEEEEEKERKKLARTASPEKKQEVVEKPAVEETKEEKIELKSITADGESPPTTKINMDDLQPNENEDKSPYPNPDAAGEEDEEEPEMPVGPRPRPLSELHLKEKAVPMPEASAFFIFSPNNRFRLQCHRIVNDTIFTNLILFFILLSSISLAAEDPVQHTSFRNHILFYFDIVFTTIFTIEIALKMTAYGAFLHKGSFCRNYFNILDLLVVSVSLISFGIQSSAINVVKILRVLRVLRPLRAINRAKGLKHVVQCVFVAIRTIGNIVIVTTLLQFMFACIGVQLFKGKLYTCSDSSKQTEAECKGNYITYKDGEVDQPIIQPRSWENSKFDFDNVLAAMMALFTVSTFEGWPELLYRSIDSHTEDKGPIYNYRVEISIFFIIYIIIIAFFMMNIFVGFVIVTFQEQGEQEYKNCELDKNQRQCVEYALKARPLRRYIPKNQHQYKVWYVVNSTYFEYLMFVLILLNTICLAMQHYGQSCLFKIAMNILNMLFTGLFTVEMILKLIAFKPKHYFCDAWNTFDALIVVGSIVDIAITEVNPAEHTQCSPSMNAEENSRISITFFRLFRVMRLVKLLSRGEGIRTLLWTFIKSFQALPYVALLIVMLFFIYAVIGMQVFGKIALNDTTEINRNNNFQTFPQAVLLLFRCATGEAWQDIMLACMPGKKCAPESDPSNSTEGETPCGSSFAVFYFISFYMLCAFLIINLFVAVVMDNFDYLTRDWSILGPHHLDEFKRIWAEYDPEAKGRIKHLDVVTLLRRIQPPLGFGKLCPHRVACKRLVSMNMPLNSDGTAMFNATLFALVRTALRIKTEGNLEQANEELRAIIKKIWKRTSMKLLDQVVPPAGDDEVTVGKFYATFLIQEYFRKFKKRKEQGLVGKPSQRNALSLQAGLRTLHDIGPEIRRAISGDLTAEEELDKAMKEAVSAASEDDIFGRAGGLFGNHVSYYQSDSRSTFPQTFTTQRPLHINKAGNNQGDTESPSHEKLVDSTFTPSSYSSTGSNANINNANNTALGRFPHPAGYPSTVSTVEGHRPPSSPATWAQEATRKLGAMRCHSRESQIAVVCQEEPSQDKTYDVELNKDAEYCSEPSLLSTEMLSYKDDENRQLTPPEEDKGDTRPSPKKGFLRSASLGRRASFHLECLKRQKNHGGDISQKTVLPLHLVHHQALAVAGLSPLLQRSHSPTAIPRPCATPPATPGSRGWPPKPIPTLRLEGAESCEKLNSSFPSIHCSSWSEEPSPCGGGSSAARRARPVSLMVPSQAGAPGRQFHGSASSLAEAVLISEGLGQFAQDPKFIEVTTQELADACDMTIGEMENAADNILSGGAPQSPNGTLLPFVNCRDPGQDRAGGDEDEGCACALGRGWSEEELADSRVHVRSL
T2 sequence (P22002 whole entry): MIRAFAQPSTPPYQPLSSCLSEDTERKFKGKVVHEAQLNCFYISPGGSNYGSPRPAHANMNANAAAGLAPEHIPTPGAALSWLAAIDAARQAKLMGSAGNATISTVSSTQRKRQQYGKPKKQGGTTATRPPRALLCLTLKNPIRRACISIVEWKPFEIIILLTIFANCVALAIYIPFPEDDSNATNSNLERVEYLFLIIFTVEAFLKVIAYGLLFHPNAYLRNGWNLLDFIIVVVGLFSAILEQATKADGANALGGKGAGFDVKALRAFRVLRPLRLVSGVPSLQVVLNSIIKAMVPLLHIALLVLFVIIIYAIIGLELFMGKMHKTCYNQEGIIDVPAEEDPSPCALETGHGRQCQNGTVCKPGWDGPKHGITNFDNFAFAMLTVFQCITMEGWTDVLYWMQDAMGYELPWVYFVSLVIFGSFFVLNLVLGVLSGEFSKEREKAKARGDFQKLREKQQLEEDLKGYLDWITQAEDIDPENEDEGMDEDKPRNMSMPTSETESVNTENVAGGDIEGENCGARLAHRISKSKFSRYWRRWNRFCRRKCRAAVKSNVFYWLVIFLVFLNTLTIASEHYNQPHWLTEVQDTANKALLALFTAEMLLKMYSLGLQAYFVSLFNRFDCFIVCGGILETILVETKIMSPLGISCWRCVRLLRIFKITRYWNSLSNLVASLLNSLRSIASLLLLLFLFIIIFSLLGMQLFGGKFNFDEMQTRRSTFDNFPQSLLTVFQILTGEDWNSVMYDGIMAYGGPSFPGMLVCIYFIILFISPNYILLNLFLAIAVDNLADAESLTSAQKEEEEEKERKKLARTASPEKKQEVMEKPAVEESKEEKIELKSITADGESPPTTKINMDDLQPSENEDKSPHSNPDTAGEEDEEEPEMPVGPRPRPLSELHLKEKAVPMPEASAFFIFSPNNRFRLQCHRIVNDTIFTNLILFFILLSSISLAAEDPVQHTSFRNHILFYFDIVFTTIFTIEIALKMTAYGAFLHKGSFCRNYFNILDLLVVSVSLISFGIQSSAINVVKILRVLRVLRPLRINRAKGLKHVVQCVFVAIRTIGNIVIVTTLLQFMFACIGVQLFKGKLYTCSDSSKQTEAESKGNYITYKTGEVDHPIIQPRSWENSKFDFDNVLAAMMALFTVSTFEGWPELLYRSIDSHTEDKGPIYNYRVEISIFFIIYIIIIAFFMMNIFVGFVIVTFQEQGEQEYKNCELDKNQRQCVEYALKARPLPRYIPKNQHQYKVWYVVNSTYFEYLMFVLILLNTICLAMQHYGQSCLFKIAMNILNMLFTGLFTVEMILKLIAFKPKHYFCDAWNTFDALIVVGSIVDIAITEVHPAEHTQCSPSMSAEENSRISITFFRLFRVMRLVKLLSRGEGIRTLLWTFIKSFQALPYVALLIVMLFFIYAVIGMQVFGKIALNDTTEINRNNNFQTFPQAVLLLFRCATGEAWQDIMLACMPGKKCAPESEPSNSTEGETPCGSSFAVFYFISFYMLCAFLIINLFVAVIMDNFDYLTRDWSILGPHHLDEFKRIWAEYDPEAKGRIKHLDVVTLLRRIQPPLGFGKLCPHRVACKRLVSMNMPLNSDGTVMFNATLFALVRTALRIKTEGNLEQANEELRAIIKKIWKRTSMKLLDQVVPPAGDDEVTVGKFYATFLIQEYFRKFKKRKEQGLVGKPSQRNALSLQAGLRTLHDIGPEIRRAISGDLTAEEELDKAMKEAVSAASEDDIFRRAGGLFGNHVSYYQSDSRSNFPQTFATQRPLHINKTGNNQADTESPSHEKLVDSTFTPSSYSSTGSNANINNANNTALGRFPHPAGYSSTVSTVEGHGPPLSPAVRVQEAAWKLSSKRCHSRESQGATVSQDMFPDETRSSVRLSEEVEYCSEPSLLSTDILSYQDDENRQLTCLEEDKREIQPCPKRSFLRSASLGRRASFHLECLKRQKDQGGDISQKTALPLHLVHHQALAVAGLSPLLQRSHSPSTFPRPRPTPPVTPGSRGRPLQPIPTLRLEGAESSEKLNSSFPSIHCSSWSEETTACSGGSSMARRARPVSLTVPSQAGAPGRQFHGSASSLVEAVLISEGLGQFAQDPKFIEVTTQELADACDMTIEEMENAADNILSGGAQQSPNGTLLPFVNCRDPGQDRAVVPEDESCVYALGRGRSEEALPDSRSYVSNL

Structure (SMILES): COC(=O)C1=C(C)NC(C)=C(C(=O)OC2CCCN(Cc3ccccc3)C2)C1c1cccc([N+](=O)[O-])c1 (stereo unspecified) [BENIDIPINE]
- IC50 [1]: 4.9 µM
- IC50 [2]: 13.8 µM

Structure (SMILES): CN(C)CCCC1(c2ccc(F)cc2)OCc2cc(C#N)ccc21 (stereo unspecified) [CITALOPRAM]
- IC50 [3]: 64.5 µM

Structure (SMILES): Clc1ccccc1C(c1ccccc1)(c1ccccc1)n1ccnc1 [CLOTRIMAZOLE]
- IC50 [4]: 0.59 µM
- IC50 [5]: 20 µM

Structure (SMILES): Cc1c(C)c2c(c(C)c1O)CCC(C)(COc1ccc(CC3SC(=O)NC3=O)cc1)O2 (stereo unspecified) [TROGLITAZONE]
- IC50 [6]: 9.5 µM

Structure (SMILES): COc1cc(N)c(Cl)cc1C(=O)NC1CCN(CCCOc2ccc(F)cc2)CC1OC (stereo unspecified) [CISAPRIDE]
- IC50 [7]: 46.9 µM
- IC50 [8]: 16 µM

Structure (SMILES): CCCC(=O)OCOC(=O)C1=C(C)NC(C)=C(C(=O)OC)C1c1cccc(Cl)c1Cl (stereo unspecified) [CLEVIDIPINE]
- IC50 [9]: 0.0788 µM
- IC50 [10]: 0.0071 µM

Structure (SMILES): CC[C@H](CO)Nc1nc(NCc2ccccc2)c2ncn(C(C)C)c2n1 [SELICICLIB]
- IC50 [11]: 23.4 µM

Structure (SMILES): CN(C)CCCN1c2ccccc2CCc2ccc(Cl)cc21 [CLOMIPRAMINE]
- IC50 [3]: 11.6 µM

Structure (SMILES): COCCOC(=O)C1=C(C)NC(C)=C(C(=O)OC(C)C)C1c1cccc([N+](=O)[O-])c1 (stereo unspecified) [NIMODIPINE]
- IC50 [12]: 0.3 µM

Structure (SMILES): CCCC(=O)N1CCCN(c2nc(N)c3cc(OC)c(OC)cc3n2)CC1 [BUNAZOSIN]
- IC50 [13]: 60 µM

Structure (SMILES): C[C@]12CC[C@@H]3c4ccc(O)cc4CC[C@H]3[C@@H]1CC[C@@H]2O [ESTRADIOL]
- IC50 [14]: 50 µM

Structure (SMILES): COc1ccc([C@@H]2Sc3ccccc3N(CCN(C)CCc3ccc(OC)c(OC)c3)C(=O)[C@@H]2OC(C)=O)cc1
- IC50 [15]: 0.0257 µM

Structure (SMILES): Fc1ccc(C(OCCN2CCN(CCCc3ccccc3)CC2)c2ccc(F)cc2)cc1 [VANOXERINE]
- IC50 [16]: 0.32 µM

Structure (SMILES): Cc1ccc(O)c([C@H](CCN(C(C)C)C(C)C)c2ccccc2)c1 [TOLTERODINE]
- IC50 [5]: 0.143 µM

Structure (SMILES): COC(=O)C1=C(C)NC(C)=C(C(=O)OCC(C)C)C1c1ccccc1[N+](=O)[O-] (stereo unspecified) [NISOLDIPINE]
- IC50 [17]: 0.08 µM
- IC50 [18]: 0.73 µM

Structure (SMILES): C[C@]12CC[C@H]3[C@@H](CCC4=CC(=O)CC[C@@]43C)[C@@H]1CC[C@@H]2O [TESTOSTERONE]
- IC50 [19]: 0.0384 µM
- IC50 [4]: 0.034 µM

Structure (SMILES): CC(C)COCC(CN(Cc1ccccc1)c1ccccc1)N1CCCC1 (stereo unspecified) [BEPRIDIL]
- IC50 [8]: 0.5 µM
- IC50 [20]: 2.6 µM

Structure (SMILES): FC(F)(F)C(Cl)Br (stereo unspecified) [HALOTHANE]
- IC50 [21]: 14500 µM
- IC50 [11]: 1800 µM

Structure (SMILES): CCN(CC)CCCC(C)Nc1c2ccc(Cl)cc2nc2ccc(OC)cc12 (stereo unspecified) [QUINACRINE]
- IC50 [22]: 5.2 µM

Structure (SMILES): COc1ccc(CCN(C)CCCC(C#N)(c2cc(OC)c(OC)c(OC)c2)C(C)C)cc1OC (stereo unspecified) [GALLOPAMIL]
- IC50 [23]: 0.017 µM

Structure (SMILES): CCN(CC)CC#CCOC(=O)C(O)(c1ccccc1)C1CCCCC1 (stereo unspecified) [OXYBUTYNIN]
- IC50 [17]: 16.1 µM

Structure (SMILES): COc1ccc(CCN(C)CCCOc2ccc(S(=O)(=O)c3c(C(C)C)cn4ccccc34)cc2)cc1OC [FANTOFARONE]
- IC50 [24]: 9 µM
- IC50 [25]: 0.022 µM
